One compound from the NIST ThermoML archive (doi:10.1016/j.jct.2012.12.019) can be followed below.

SMILES strings stand for the structures. Numbers after ± are expanded uncertainties.

For the data set the following is noted: Liquid, Closed cell (Static) method.

In the case of `CCCO` [propan-1-ol], the vapor or sublimation pressure (as a rule, the pressure of vapour in equilibrium with the condensed phase) is, setting by setting: (383.2 K) 160.4 ± 3.5 kPa; (393.2 K) 223.3 ± 4.7 kPa; (403.2 K) 303.1 ± 6.3 kPa; (413.2 K) 406.6 ± 8.5 kPa; (423.2 K) 546.1 ± 11 kPa.
